In ChEMBL document CHEMBL1201862, “PubChem BioAssay data set” (2004):
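These data come from cells grown in 96-well plates and exposed to compound for 48 hours at five concentrations. The concentration for 50% growth inhibition is given as GI50.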 Active and inactive are the calls of the source. Rule as the data show it: active = GI50 up to about 1.1 µM and inactive = higher.

How the values were obtained:
Assay in all cases: growth of human tumour cells (NCI), 48 h
[1] = test system: MCF7
[2] = test system: A498
[3] = test system: CAKI-1
[4] = test system: NCI-H460
[5] = test system: SW-620
[6] = test system: HT-29
[7] = test system: UO-31
[8] = test system: U-251
[9] = test system: OVCAR-4
[10] = test system: NCI/ADR-RES
[11] = test system: MOLT-4
[12] = test system: KM-20L2
[13] = test system: NCI-H23
[14] = test system: NCI-H522
[15] = test system: DMS-273
[16] = test system: T47D
[17] = test system: MDA-MB-231
[18] = test system: BT-549
[19] = test system: DU-145
[20] = test system: Hs-578T

| SMILES | GI50 [1] | GI50 [2] | GI50 [3] | GI50 [4] | GI50 [5] | GI50 [6] | GI50 [7] | GI50 [8] | GI50 [9] | GI50 [10] | GI50 [11] | GI50 [12] | GI50 [13] | GI50 [14] | GI50 [15] | GI50 [16] | GI50 [17] | GI50 [18] | GI50 [19] | GI50 [20] |
| --- | --- | --- | --- | --- | --- | --- | --- | --- | --- | --- | --- | --- | --- | --- | --- | --- | --- | --- | --- | --- |
| O=C1c2ccccc2C(O)(C(=O)O)C1(O)CC=C(Cl)Cl (stereo not given) | > 125 µM (inactive) | > 125 µM (inactive) | > 125 µM (inactive) | > 125 µM (inactive) | > 125 µM (inactive) | > 125 µM (inactive) | > 112 µM (inactive) | > 28.2 µM (inactive) | > 125 µM (inactive) | > 125 µM (inactive) | > 125 µM (inactive) | > 125 µM (inactive) | > 125 µM (inactive) | > 125 µM (inactive) | > 125 µM (inactive) | – | – | – | – | – |
| O=C(O)C(Cc1cccs1)NC(=O)C(F)(F)F (stereo not given) | > 100 µM (inactive) | > 100 µM (inactive) | > 100 µM (inactive) | > 100 µM (inactive) | > 100 µM (inactive) | > 100 µM (inactive) | > 100 µM (inactive) | > 100 µM (inactive) | > 100 µM (inactive) | > 100 µM (inactive) | > 100 µM (inactive) | > 100 µM (inactive) | > 100 µM (inactive) | > 100 µM (inactive) | > 100 µM (inactive) | – | – | – | – | – |
| CS(=O)(=O)OCCCNCCCOS(C)(=O)=O | 679 µM (inactive) | 1330 µM (inactive) | 650 µM (inactive) | 156 µM (inactive) | 1140 µM (inactive) | 1210 µM (inactive) | 1990 µM (inactive) | 893 µM (inactive) | 2130 µM (inactive) | 1600 µM (inactive) | 189 µM (inactive) | 1990 µM (inactive) | 904 µM (inactive) | 1850 µM (inactive) | 328 µM (inactive) | 573 µM (inactive) | 1860 µM (inactive) | 1270 µM (inactive) | 627 µM (inactive) | 2090 µM (inactive) |
| CCn1c(=O)c(C(=O)O)c(Cl)c2cc3c(cc21)OCO3 | > 100 µM (inactive) | > 100 µM (inactive) | > 100 µM (inactive) | > 100 µM (inactive) | > 100 µM (inactive) | > 100 µM (inactive) | > 100 µM (inactive) | > 100 µM (inactive) | > 100 µM (inactive) | > 100 µM (inactive) | > 100 µM (inactive) | > 100 µM (inactive) | > 100 µM (inactive) | > 100 µM (inactive) | > 100 µM (inactive) | – | – | – | – | – |
| CC1CC(C)(O)C2C3(C)CCCC2(COC3=O)C12CCC1(CCOC1=O)O2 (stereo not given) | > 250 µM (inactive) | > 163 µM (inactive) | > 250 µM (inactive) | > 250 µM (inactive) | > 250 µM (inactive) | > 250 µM (inactive) | > 238 µM (inactive) | > 250 µM (inactive) | > 250 µM (inactive) | > 250 µM (inactive) | > 250 µM (inactive) | > 250 µM (inactive) | > 250 µM (inactive) | > 250 µM (inactive) | > 250 µM (inactive) | – | – | – | – | – |
| OCC1OC(n2cnc3c2NC=NC[C@H]3O)C(O)C1O (stereo not given in full) | > 450 µM (inactive) | 208 µM (inactive) | 226 µM (inactive) | 164 µM (inactive) | 317 µM (inactive) | > 450 µM (inactive) | 282 µM (inactive) | > 450 µM (inactive) | > 450 µM (inactive) | > 436 µM (inactive) | 318 µM (inactive) | 444 µM (inactive) | 445 µM (inactive) | 312 µM (inactive) | 303 µM (inactive) | – | – | – | – | – |
| CC(C)c1oc(=O)cc2c1C(O)C1OC(=O)C3(C)C(O)C4OC4C2(C)C13 (stereo not given) [NAGILACTONE] | 0.728 µM (active) | 0.569 µM (active) | 2.08 µM (inactive) | 0.733 µM (active) | 1.45 µM (inactive) | 1.69 µM (inactive) | 4.52 µM (inactive) | 1.58 µM (inactive) | 2.12 µM (inactive) | 12.9 µM (inactive) | 0.83 µM (active) | 1.63 µM (inactive) | 1.36 µM (inactive) | 1.15 µM (inactive) | 0.966 µM (active) | – | – | – | – | – |
